Data set [1] addresses T1, bovine thrombin (Bos taurus, UniProt P00735).
T1 construct: purchased Mochida Co., Ltd
Briefly: Antithrombin activity: hydrolysis inhibition of synthetic substrate (S-2238). The data set is classed as biochemical. Here is the method:
Determination of antithrombin activity
(i) The measuring method for hydrolysis inhibition of synthetic substrate (S-2238)
S-2238 (manufactured by Kabi Co.) is dissolved in a Tris hydrochloric acid buffer solution (pH: 8.3) to prepare a S-2238-0.4M Tris hydrochloric acid solution having a concentration of 80 μm. To 175 μl of the solution, an aqueous solution of a compound of the present invention (515 μl) is added. After incubating at 37° C. for one minute, 10 μl of a bovine thrombin solution (4.4 units/ml, manufactured by Mochida Co., Ltd.) is added. A hydrolysis reaction rate of the substrate is determined by measuring a change in absorbance of 405 nm at 37° C.

Data set [2] has as its target T1, bovine thrombin. As to the kind of experiment: Antithrombin activity: coagulation inhibition of rat plasma. The data set is classed as biochemical. Here is the method: (ii) The measuring method for coagulation inhibition of rat plasma The compound of the present invention is dissolved in water or saline to form a solution of a total volume of 0.1 ml. To the solution, 0.1 ml of rat plasma is added and the mixture is incubated at 37° C. for 30 seconds. Then, 0.1 ml of bovine thrombin (8 units/ml, Mochida Co., Ltd.) is added and the coagulation time is measured at 37° C. The concentration of the inhibitor (i.e., the compound of the present invention) which doubles the coagulation time that obtained in the absence of the inhibitor was determined as I50 (μm).

A further data set concerns the target T2, bovine trypsin (Bos taurus, UniProt P00760).
T2 construct: purchased Sigma Co
T2 sequence (P00760 24-246): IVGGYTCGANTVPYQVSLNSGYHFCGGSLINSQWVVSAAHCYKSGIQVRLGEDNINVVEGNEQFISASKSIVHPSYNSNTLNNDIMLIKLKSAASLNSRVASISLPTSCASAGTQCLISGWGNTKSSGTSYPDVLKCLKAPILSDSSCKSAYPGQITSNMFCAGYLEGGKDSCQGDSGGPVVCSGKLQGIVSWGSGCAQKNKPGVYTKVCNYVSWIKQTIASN
As to the kind of experiment: Antitrypsin activity: hydrolysis inhibition of synthetic substrate (S-2222). The class given is biochemical. As to conditions: S-2222 substrate, pH 8.3, 37° C., absorbance 405 nm, read-out: Antitrypsin activity I50. Here is the method: Determination of Antitrypsin activity
(i) The measuring method for hydrolysis inhibition of synthetic substrate (S-2222)
S-2222 (manufactured by Kabi Co.) is dissolved in a Tris hydrochloric acid (pH: 8.3) to prepare a S-2222-0.4M Tris hydrochloric acid solution having a concentration of 400 μm. To the solution (175 μl), 515 μl of a solution of a compound of the present invention is added. After incubating at 37° C. for one minute, 10 μl of a bovine trypsin solution (1 to 2 mg/ml, manufactured by Sigma Co.) is added. A hydrolysis reaction rate of the substrate is determined by measuring a change in absorbance of 405 nm at 37° C.

For data set [3] the following is noted: J. Med. Chem., 33, 1729 (1990); cited from earlier work.

Take `CC(C)OC(=O)N[C@H](CC(C)(C)C)C(=O)N1CCC[C@H]1C(=O)NC[C@H]1CC[C@H](N)CC1` [compound 56]: the IC50 against bovine thrombin [1] came to 130 nM; at bovine thrombin [2], 80 nM; at bovine trypsin it was 14000 nM.

On to `CS(=O)(=O)N[C@H](CC1CCCCC1)C(=O)N1CCC[C@H]1C(=O)NC[C@H]1CC[C@H](C(=N)N)CC1` [compound 20], for which the IC50 against bovine thrombin [2] amounted to 28 nM. The same measure, in the same setting: for `N[C@H]1CC[C@H](CNC(=O)[C@@H]2CCCN2C(=O)[C@H](O)C2CCCCC2)CC1` [compound 61] the value was 56 nM; for `CSCC[C@@H](NS(C)(=O)=O)C(=O)N1CCC[C@H]1C(=O)NCc1ccc(C(=N)N)cc1` [compound 5], 48 nM. With `CCOC(=O)N[C@H](CC1CCCCC1)C(=O)N1CCC[C@H]1C(=O)NC[C@H]1CC[C@H](C(=N)N)CC1` [compound 16], the IC50 against bovine thrombin [1] was 21 nM; on bovine trypsin, 1700 nM. On to `CC(C)(C)C[C@@H](NS(C)(=O)=O)C(=O)N1CCC[C@H]1C(=O)NCc1ccc(C(=N)N)cc1` [compound 2], for which, at bovine thrombin [2], the IC50 came out at 30 nM. Still for that read-out and setting: the value for `CS(=O)(=O)N[C@H](COc1ccccc1C(=O)OCc1ccccc1)C(=O)N1CCC[C@H]1C(=O)NCc1ccc(C(=N)N)cc1` [compound 10] was 170 nM. Consider `CS(=O)(=O)N[C@H](Cc1ccccc1)C(=O)N1CCC[C@H]1C(=O)NCc1ccc(C(=N)N)cc1` [compound 4], for which the IC50 stood at 7.6 nM against bovine thrombin [1], 21 nM against bovine thrombin [2] and 40 nM at bovine trypsin. In the same order, the values of `CC(C)(C)C[C@@H](NC(=O)OC(C)(C)C)C(=O)N1CCC[C@H]1C(=O)NC[C@H]1CC[C@H](C(=N)N)CC1` [compound 23] are 17 nM, 58 nM and 3600 nM. `CCCC[C@@H](NS(C)(=O)=O)C(=O)N1CCC[C@H]1C(=O)NCc1ccc(C(=N)N)cc1` [compound 7] returned an IC50 on bovine thrombin [2] of 30 nM.

`CCOC(=O)N[C@H](Cc1ccccc1)C(=O)N1CCC[C@H]1C(=O)NC[C@H]1CC[C@H](N)CC1` [compound 57] yielded an IC50 on bovine thrombin [2] of 82 nM. Take `CCOC(=O)N[C@H](CC(C)(C)C)C(=O)N1CCC[C@H]1C(=O)NC[C@H]1CC[C@H](C(=N)N)CC1` [compound 15]: the IC50 against bovine thrombin [1] came out at 11 nM; on bovine thrombin [2], 38 nM; on bovine trypsin it was 2200 nM. On to `CC(C)OC(=O)N[C@@H](C(=O)N1CCC[C@H]1C(=O)NC[C@H]1CC[C@H](C(=N)N)CC1)C1CCCCC1` [compound 21], for which the IC50 at bovine thrombin [1] was found to be 21 nM; at bovine trypsin it was 1000 nM.

As to `CCOC(=O)N[C@H](CC(C)(C)C)C(=O)N1CCC[C@H]1C(=O)NC[C@H]1CC[C@H](N)CC1` [compound 64], the IC50 on bovine thrombin [2] was 130 nM. For the compound `CS(=O)(=O)N[C@H](Cc1ccccc1)C(=O)N1CCC[C@H]1C(=O)NC[C@H]1CC[C@H](NC(=N)N)CC1` [compound 67], the IC50 on bovine thrombin [1] was 560 nM; on bovine thrombin [2] it was 81 nM; on bovine trypsin, 20000 nM. The compound `CS(=O)(=O)N[C@H](COc1cccc(C(=O)O)c1)C(=O)N1CCC[C@H]1C(=O)NCc1ccc(C(=N)N)cc1` [compound 9] came in with an IC50 against bovine thrombin [2] of 110 nM. For the compound `CC(C)OC(=O)N[C@H](CC(C)(C)C)C(=O)N1CCC[C@H]1C(=O)NC[C@H]1CC[C@H](C(=N)N)CC1` [compound 17], the IC50 against bovine thrombin [1] came to 15 nM; on bovine thrombin [2], 53 nM; at bovine trypsin, 3200 nM.

As for `CS(=O)(=O)N[C@H](Cc1ccccc1)C(=O)N1CCC[C@H]1C(=O)NC[C@H]1CC[C@H](N)CC1` [compound 52], the figures for the IC50 at bovine thrombin [1], against bovine thrombin [2] and at bovine trypsin were 130 nM, 45 nM and 14000 nM, respectively. As to `N=C(N)NCCC[C@@H](C=O)NC(=O)[C@@H]1CCCN1C(=O)[C@H](N)Cc1ccccc1` [D-phenylalanyl-L-prolyl-L-arginal], the “stability in the living body” value in data set [3] is recorded as “fairly unstable”. At bovine thrombin [2], `CS(=O)(=O)N[C@@H](C(=O)N1CCC[C@H]1C(=O)NCc1ccc(C(=N)N)cc1)C1CCCCC1` [compound 1] yielded an IC50 of 46 nM. On the same count and under the same terms, for `CCCCC[C@@H](NS(=O)(=O)CC(=O)O)C(=O)N1CCC[C@H]1C(=O)NCc1ccc(C(=N)N)cc1` [compound 12] the value was 83 nM. Same read-out and setting: the value for `N[C@H]1CC[C@H](CNC(=O)[C@@H]2CCCN2C(=O)[C@H](O)c2ccccc2)CC1` [compound 62] was 88 nM. With `CS(=O)(=O)N[C@@H](C(=O)N1CCC[C@H]1C(=O)NC[C@H]1CC[C@H](N)CC1)C1CCCCC1` [compound 53], the IC50 on bovine thrombin [1] worked out at 81 nM; against bovine thrombin [2], 59 nM; at bovine trypsin it was 1400 nM. At bovine thrombin [2], `N=C(N)c1ccc(CNC(=O)[C@@H]2CCCN2C(=O)[C@@H](Cc2ccccc2)NC=O)cc1` [compound 6] displayed an IC50 of 56 nM.

As for `NC(=NO)c1ccc(CNC(=O)[C@@H]2CCCN2C(=O)Cc2ccccc2)cc1` [compound 25], the IC50 on bovine thrombin [2] was more than 300000 nM.

`N[C@H]1CC[C@H](CNC(=O)[C@@H]2CCCN2C(=O)[C@H](CCC(=O)O)NS(=O)(=O)c2ccccc2)CC1` [compound 54] returned an IC50 against bovine thrombin [2] of 230 nM. Consider `CCOC(=O)N[C@H](CC(CC)CC)C(=O)N1CCC[C@H]1C(=O)NC[C@H]1CC[C@H](C(=N)N)CC1` [compound 22], for which the IC50 against bovine thrombin [1] amounted to 14 nM; on bovine trypsin, 940 nM.

Turning to `N[C@H](Cc1ccccc1)C(=O)N1CCC[C@H]1C(=O)NC[C@H]1CC[C@H](N)CC1` [compound 58], on bovine thrombin [2], the IC50 turned out to be 97 nM.

Turning to `CC(C)C[C@@H](NS(C)(=O)=O)C(=O)N1CCC[C@H]1C(=O)NC[C@H]1CC[C@H](C(=N)N)CC1` [compound 19], at bovine thrombin [2], the IC50 is 31 nM. Same read-out and setting: the value for `COC(=O)c1ccc(CC[C@@H](NS(C)(=O)=O)C(=O)N2CCC[C@H]2C(=O)NCc2ccc(C(=N)N)cc2)cc1` [compound 8] was 122 nM. On to `N=C(N)c1ccc(CNC(=O)[C@@H]2CCCN2C(=O)CCCc2ccccc2)cc1` [compound 13], for which the IC50 against bovine thrombin [1] was found to be 720 nM; against bovine thrombin [2], 590 nM.

Values taken from patent US5744487A, “Prolineamide derivatives” (Mitsubishi Chemical Corporation, priority 1994, dated 1998).
